Series [1] concerns HeLa. Briefly: Induction of apoptosis in human HeLa cells assessed as late apoptotic cells at 100 nM after 48 hrs by Annexin V-FITC/propidium iodide staining based flow cytometry (reference value: 2%). The format is functional. On the technique in general: Flow cytometry measures light scatter and fluorescence of single cells or particles in a stream.
In series [2] the test system is HeLa. The experiment in a line: Upregulation of Cyclin-B1 protein expression in human HeLa cells at 50 to 200 nM by Western blot analysis. It is filed as functional, cell-based. In general terms: Immunoblotting shows a protein as a band on a membrane.
Series [3] concerns Mus musculus. The experiment in a line: Anti-vascular activity in Balb/c nude mouse assessed as inhibition of VEGF-induced capillary blood vessel formation by measuring reduction in hemoglobin level using sc injected matrigel plug supplemented with 100 nM test compound mixed with VEGF and measured after 1 week by matrigel plug assay. It is filed as functional, organism-based.

Series [4] deals with HeLa. The experiment in a line: Induction of apoptosis in human HeLa cells assessed as necrotic cells at 100 nM after 48 hrs by Annexin V-FITC/propidium iodide staining based flow cytometry (reference value: 0.9%). It is filed as functional.
Series [5] can be described thus: Acute toxicity in ICR mouse assessed as survival rate at 275 mg/kg, ip measured on day 14 (reference value: 100%). It is filed as organism-based. The following applies: in vivo.
Series [6] relates to HeLa. Briefly: Induction of histone-H3 phosphorylation in human HeLa cells by Western blot analysis. It is filed as cell-based.
Series [7] in a line: Acute toxicity in ICR mouse assessed as survival rate at 150 mg/kg, ip measured on day 14 (reference value: 100%). The format is organism-based. The following applies: in vivo.
In series [8] the test system is Mus musculus. Briefly: Acute toxicity in ICR mouse assessed as death at 100 to 275 mg/kg, ip measured after 5 to 14 days. Conditions: in vivo. It is filed as organism-based.
Series [9] relates to HeLa. Briefly: Induction of apoptosis in human HeLa cells assessed as early apoptotic cells at 50 nM after 48 hrs by Annexin V-FITC/propidium iodide staining based flow cytometry (reference value: 0.7%). It is filed as functional.
Series [10] deals with Mus musculus. Briefly: Acute toxicity in ICR mouse assessed as death at 100 to 125 mg/kg, ip measured after 1 day. It is filed as organism-based. The following applies: in vivo, 24 h.
Series [11] deals with HeLa. Briefly: Cell cycle arrest in human HeLa cells assessed as accumulation at G2/M-phase at 50 nM after 24 hrs by propidium iodide staining based flow cytometry. The format is functional.

Activity calls are given as the source filed them. No cut-off for these calls is given here.

As to `COc1ccc([C@H]2[C@H](C)C(=O)N2c2cc(OC)c(OC)c(OC)c2)cc1O`, the Activity with HeLa [1] was 29.9%; with HeLa [4] it was 7.5%; in the series on HeLa [6], “Dose-dependent effect”; in the series with Mus musculus [8] it was “Non-Toxic”; in the series on HeLa [9], 29.3%; with Mus musculus [10], “Non-Toxic”. For the same compound, the Activity with HeLa [11] was 100%. For the same compound, the result in the series with HeLa [2] was Active. Further, the inhibition result in the series with Mus musculus [3] is “Active”. In addition, the figures for the survival at 14 day in series [5] and in series [7] were 10% and 40%, respectively.
